This series in a line: The pKa of the sulfonamido group of the compound. It counts as physicochemical.

Among the data in ChEMBL document CHEMBL1132004, “Antagonism of the TXA2 receptor by seratrodast: a structural approach” (Bioorg Med Chem Lett, 1999) are pKa values, retold here.

In general, pKa refers to the pH at which an ionisable group is half protonated. Turning to `Cc1cccc(Nc2ccncc2S(=O)(=O)/N=C(\NC#N)N2CCCCCC2)c1`, the pKa worked out at 6.
